Experiments:
[1] = biological target: T1, 5-hydroxytryptamine receptor 4 (Homo sapiens, UniProt Q13639); assay: Agonist activity at full-length human 5-HT4R stably expressed in HEK293 cells assessed as increase in intracellular cAMP level incubated for 30 mins under dark condition by reporter gene assay; format: functional, cell-based
[2] = biological target: T1, 5-hydroxytryptamine receptor 4; assay: Agonist activity at full-length human 5-HT4R stably expressed in HEK293 cells assessed as increase in intracellular cAMP level incubated for 30 mins under dark condition by reporter gene assay relative to control; format: functional, cell-based
[3] = biological target: T1, 5-hydroxytryptamine receptor 4; assay: Displacement of [3H]-GR113808 from full-length human 5-HT4R stably expressed in HEK293 cell membrane by MicroBeta2 Reader analysis; format: cell membranes
[4] = biological target: Voltage-gated inwardly rectifying potassium channel KCNH2 (Homo sapiens, UniProt Q12809); assay: Inhibition of hERG; format: toxicity
Sequence of Voltage-gated inwardly rectifying potassium channel KCNH2 (Q12809 whole entry): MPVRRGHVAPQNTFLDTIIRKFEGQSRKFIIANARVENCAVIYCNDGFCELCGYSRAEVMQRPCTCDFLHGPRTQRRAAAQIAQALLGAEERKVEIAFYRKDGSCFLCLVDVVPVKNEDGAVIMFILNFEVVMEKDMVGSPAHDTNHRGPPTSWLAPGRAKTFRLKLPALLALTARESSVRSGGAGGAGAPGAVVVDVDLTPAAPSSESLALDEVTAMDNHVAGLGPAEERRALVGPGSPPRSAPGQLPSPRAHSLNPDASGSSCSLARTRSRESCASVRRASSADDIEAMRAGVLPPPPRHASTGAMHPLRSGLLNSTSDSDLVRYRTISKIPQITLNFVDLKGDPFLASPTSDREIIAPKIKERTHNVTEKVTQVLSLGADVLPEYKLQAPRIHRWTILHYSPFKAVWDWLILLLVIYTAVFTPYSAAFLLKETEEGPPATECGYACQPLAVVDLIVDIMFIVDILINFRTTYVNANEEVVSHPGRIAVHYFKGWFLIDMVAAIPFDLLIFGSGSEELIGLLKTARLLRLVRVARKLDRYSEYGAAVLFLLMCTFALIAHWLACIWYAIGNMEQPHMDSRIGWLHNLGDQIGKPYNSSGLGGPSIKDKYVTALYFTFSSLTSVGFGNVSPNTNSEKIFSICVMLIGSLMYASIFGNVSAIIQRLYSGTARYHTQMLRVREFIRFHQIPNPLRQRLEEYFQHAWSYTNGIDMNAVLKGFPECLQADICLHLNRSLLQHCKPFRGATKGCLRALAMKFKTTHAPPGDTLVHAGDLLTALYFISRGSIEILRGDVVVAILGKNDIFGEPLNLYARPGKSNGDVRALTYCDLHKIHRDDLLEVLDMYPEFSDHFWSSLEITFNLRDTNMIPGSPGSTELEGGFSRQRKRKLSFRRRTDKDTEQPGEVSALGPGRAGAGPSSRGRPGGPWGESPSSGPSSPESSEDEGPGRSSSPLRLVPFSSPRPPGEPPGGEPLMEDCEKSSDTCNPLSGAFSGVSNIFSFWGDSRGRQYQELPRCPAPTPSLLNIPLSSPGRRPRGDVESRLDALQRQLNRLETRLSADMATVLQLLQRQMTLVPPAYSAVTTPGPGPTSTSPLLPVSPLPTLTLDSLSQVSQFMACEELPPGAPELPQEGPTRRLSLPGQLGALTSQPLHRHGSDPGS

[5] = Apparent permeability coefficient of compound at 10 uM incubated for 4 hrs by PAMPA; format: ADME
[6] = Permeability of compound assessed as compound recovery at 10 uM incubated for 4 hrs by PAMPA; format: ADME; settings: read-out: Drug recovery

T1 sequence (Q13639 whole entry): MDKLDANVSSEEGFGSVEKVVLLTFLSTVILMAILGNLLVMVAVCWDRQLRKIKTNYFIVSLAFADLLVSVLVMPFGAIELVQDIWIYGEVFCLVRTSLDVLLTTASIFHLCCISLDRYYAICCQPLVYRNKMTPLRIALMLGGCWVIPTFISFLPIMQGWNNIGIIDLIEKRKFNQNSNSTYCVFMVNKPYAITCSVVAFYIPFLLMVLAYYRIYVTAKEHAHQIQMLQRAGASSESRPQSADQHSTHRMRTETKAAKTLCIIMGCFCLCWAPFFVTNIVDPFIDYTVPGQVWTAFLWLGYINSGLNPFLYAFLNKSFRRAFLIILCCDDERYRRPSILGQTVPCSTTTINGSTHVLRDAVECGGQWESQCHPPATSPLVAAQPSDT

Row | SMILES | EC50 [1] [nM] | Efficacy ([2]; filed as agonist) [%] | also measured
1 | Nc1c(Cl)cc(C(=O)NC2CCN(CCC(=O)NCCOCCOCCNC(=O)Nc3ccc(NC(=O)NCCOCCOCCNC(=O)CCN4CCC(NC(=O)c5cc(Cl)c(N)c6c5OCC6)CC4)cc3)CC2)c2c1CCO2 | 10.5 | 89.8 | 
2 | Nc1c(Cl)cc(C(=O)NC2CCN(CCC(=O)NCCCCCCCCNC(=O)NCCCCNC(=O)NCCCCCCCCNC(=O)CCN3CCC(NC(=O)c4cc(Cl)c(N)c5c4OCC5)CC3)CC2)c2c1CCO2 | 747 | 125 | 
3 | Nc1c(Cl)cc(C(=O)NC2CCN(CCC(=O)NCCOCCOCCOCCNC(=O)NCCCCNC(=O)NCCOCCOCCOCCNC(=O)CCN3CCC(NC(=O)c4cc(Cl)c(N)c5c4OCC5)CC3)CC2)c2c1CCO2 | 6.71 | 125 | 
4 | Nc1c(Cl)cc(C(=O)NC2CCN(CCC(=O)NCCOCCOCCNC(=O)c3ccc(C(=O)NCCOCCOCCNC(=O)CCN4CCC(NC(=O)c5cc(Cl)c(N)c6c5OCC6)CC4)cc3)CC2)c2c1CCO2 | 5.67 | 110 | 
5 | Nc1c(Cl)cc(C(=O)NC2CCN(CCC(=O)NCCCCCCCCNC(=O)NCCNC(=O)NCCCCCCCCNC(=O)CCN3CCC(NC(=O)c4cc(Cl)c(N)c5c4OCC5)CC3)CC2)c2c1CCO2 | 5.88 | 125 | 
6 | Nc1c(Cl)cc(C(=O)NC2CCN(CCC(=O)NCCOCCOCCNC(=O)N3CC4(C3)CN(C(=O)NCCOCCOCCNC(=O)CCN3CCC(NC(=O)c5cc(Cl)c(N)c6c5OCC6)CC3)C4)CC2)c2c1CCO2 | 11.4 | 122 | 
7 | Nc1c(Cl)cc(C(=O)NC2CCN(CCC(=O)NCCOCCOCCNC(=O)N3CCN(C(=O)NCCOCCOCCNC(=O)CCN4CCC(NC(=O)c5cc(Cl)c(N)c6c5OCC6)CC4)CC3)CC2)c2c1CCO2 | 7.08 | 127 | 
8 | Nc1c(Cl)cc(C(=O)NC2CCN(CCC(=O)NCCOCCOCCNC(=O)C3(C(=O)NCCOCCOCCNC(=O)CCN4CCC(NC(=O)c5cc(Cl)c(N)c6c5OCC6)CC4)CCC3)CC2)c2c1CCO2 | 8.05 | 122 | 
9 | Nc1c(Cl)cc(C(=O)NC2CCN(CCC(=O)NCCOCCOCCNC(=O)/C=C/C(=O)NCCOCCOCCNC(=O)CCN3CCC(NC(=O)c4cc(Cl)c(N)c5c4OCC5)CC3)CC2)c2c1CCO2 | 6.69 | 98 | 
10 | CC(C)n1nc(-c2nnc(C3CCN(CCC(=O)NCCOCCOCCNC(=O)NCCCCNC(=O)NCCOCCOCCNC(=O)CCN4CCC(c5nnc(-c6nn(C(C)C)c7ccccc67)o5)CC4)CC3)o2)c2ccccc21 | > 10000 | 47.8 | 
11 | O=C(CCN1CCC(COc2noc3c(O[C@@H]4CCOC4)cccc23)CC1)NCCOCCOCCNC(=O)NCCCCNC(=O)NCCOCCOCCNC(=O)CCN1CCC(COc2noc3cccc(O[C@@H]4CCOC4)c23)CC1 | > 10000 |  | Efficacy [2]: 0.16%
12 | Nc1c(Cl)cc(C(=O)NC2CCN(CCC(=O)NCCOCCOCCNC(=O)N[C@H]3CC[C@H](NC(=O)NCCOCCOCCNC(=O)CCN4CCC(NC(=O)c5cc(Cl)c(N)c6c5OCC6)CC4)CC3)CC2)c2c1CCO2 | 6.82 | 122 | 
13 | COc1cc(N)c(Cl)cc1C(=O)NC1CCN(CCC(=O)NCCOCCOCCNC(=O)NCCCCNC(=O)NCCOCCOCCNC(=O)CCN2CCC(NC(=O)c3cc(Cl)c(N)cc3OC)CC2)CC1 | 43.6 | 102 | 
14 | Nc1c(Cl)cc(C(=O)NC2CCN(CCC(=O)NCCCCCCCCNC(=O)NCCCCCCNC(=O)NCCCCCCCCNC(=O)CCN3CCC(NC(=O)c4cc(Cl)c(N)c5c4OCC5)CC3)CC2)c2c1CCO2 | 17.6 | 90.9 | 
15 | Nc1c(Cl)cc(C(=O)NCCC2CCN(CCC(=O)NCCOCCOCCNC(=O)NCCCCNC(=O)NCCOCCOCCNC(=O)CCN3CCC(CCNC(=O)c4cc(Cl)c(N)c5c4OCC5)CC3)CC2)c2c1CCO2 | 81.4 | 102 | 
16 | COCCCN1CCC(NC(=O)c2cc(Cl)c(N)c3c2OCC3)CC1 [PRUCALOPRIDE] |  | 110 | IC50 [4]: 4100 nM; Papp at 4 h, 10 µM [5]: < 0.0185 ×10⁻⁶ cm/s; recovery at 4 h, 10 µM [6]: 92.4%
17 | Nc1c(Cl)cc(C(=O)NC2CCN(CCC(=O)NCCOCCOCCNC(=O)NCCCCNC(=O)NCCOCCOCCNC(=O)CCN3CCC(NC(=O)c4cc(Cl)c(N)c5c4OCC5)CC3)CC2)c2c1CCO2 | 6.46 | 112 | Ki [3]: 197 nM

Continued, in another order:

Row | EC50 [1] [nM] | Efficacy ([2]; filed as agonist) [%] | SMILES | also measured
18 | 2.5 | 128 | Nc1c(Cl)cc(C(=O)NC2CCN(CCC(=O)NCCOCCOCCNC(=O)C3(C(=O)NCCOCCOCCNC(=O)CCN4CCC(NC(=O)c5cc(Cl)c(N)c6c5OCC6)CC4)CC3)CC2)c2c1CCO2 | 
19 | 3.81 | 106 | Nc1c(Cl)cc(C(=O)NC2CCN(CCCCCC(=O)NCCOCCOCCNC(=O)NCCCCNC(=O)NCCOCCOCCNC(=O)CCCCCN3CCC(NC(=O)c4cc(Cl)c(N)c5c4OCC5)CC3)CC2)c2c1CCO2 | 
20 | 0.07 | 95.3 | CN(CCOCCNC(=O)NCCOCCN(C)C(=O)CCCN1CCC(NC(=O)c2cc(Cl)c(N)c3c2OCC3)CC1)C(=O)CCCN1CCC(NC(=O)c2cc(Cl)c(N)c3c2OCC3)CC1 | Ki [3]: 98.9 nM
21 | 1.07 | 119 | Nc1c(Cl)cc(C(=O)NC2CCN(CCC(=O)NCCOCCOCCOCCNC(=O)NCCOCCOCCOCCNC(=O)CCN3CCC(NC(=O)c4cc(Cl)c(N)c5c4OCC5)CC3)CC2)c2c1CCO2 | 
22 | 0.17 | 113 | Nc1c(Cl)cc(C(=O)NCC2CCN(CCCCCNC(=O)CCOCCOCCNC(=O)NCCCCNC(=O)NCCOCCOCCC(=O)NCCCCCN3CCC(CNC(=O)c4cc(Cl)c(N)c5c4OCC5)CC3)CC2)c2c1CCO2 | Ki [3]: 1.49 nM
23 | 2.99 | 130 | Nc1c(Cl)cc(C(=O)NC2CCN(CCC(=O)NCCOCCOCCNC(=O)C3(C(=O)NCCOCCOCCNC(=O)CCN4CCC(NC(=O)c5cc(Cl)c(N)c6c5OCC6)CC4)CCCC3)CC2)c2c1CCO2 | 
24 | 3 | 116 | Nc1c(Cl)cc(C(=O)NC2CCN(CCC(=O)NCCOCCOCCNC(=O)C3(C(=O)NCCOCCOCCNC(=O)CCN4CCC(NC(=O)c5cc(Cl)c(N)c6c5OCC6)CC4)CCCCC3)CC2)c2c1CCO2 | 
25 | 5.46 | 129 | CC(C)(C(=O)NCCOCCOCCNC(=O)CCN1CCC(NC(=O)c2cc(Cl)c(N)c3c2OCC3)CC1)C(=O)NCCOCCOCCNC(=O)CCN1CCC(NC(=O)c2cc(Cl)c(N)c3c2OCC3)CC1 | 
26 | 1.39 | 104 | Nc1c(Cl)cc(C(=O)NCC2CCN(CCCCCC(=O)NCCOCCOCNC(=O)N[C@H]3CC[C@H](NC(=O)NCOCCOCCNC(=O)CCCCCN4CCC(CNC(=O)c5cc(Cl)c(N)c6c5OCC6)CC4)CC3)CC2)c2c1CCO2 | 
27 | 3.02 | 102 | Nc1c(Cl)cc(C(=O)NC2CCN(CCCCC(=O)NCCOCCOCCNC(=O)NCCCCNC(=O)NCCOCCOCCNC(=O)CCCCN3CCC(NC(=O)c4cc(Cl)c(N)c5c4OCC5)CC3)CC2)c2c1CCO2 | 
28 | 0.33 | 88.6 | Nc1c(Cl)cc(C(=O)NC2CCN(CCCC(=O)NCCOCCNC(=O)NCCOCCNC(=O)CCCN3CCC(NC(=O)c4cc(Cl)c(N)c5c4OCC5)CC3)CC2)c2c1CCO2 | Ki [3]: 75 nM
29 | 5.18 | 89.7 | Nc1c(Cl)cc(C(=O)NC2CCN(CCNC(=O)CCOCCOCCNC(=O)NCCCCNC(=O)NCCOCCOCCNC(=O)CCN3CCC(NC(=O)c4cc(Cl)c(N)c5c4OCC5)CC3)CC2)c2c1CCO2 | 
30 | 3.71 | 119 | Nc1c(Cl)cc(C(=O)NC2CCN(CCC(=O)NCCOCCNC(=O)NCCCCNC(=O)NCCOCCNC(=O)CCN3CCC(NC(=O)c4cc(Cl)c(N)c5c4OCC5)CC3)CC2)c2c1CCO2 | 
31 | 2.66 | 115 | Nc1c(Cl)cc(C(=O)NC2CCN(CCC(=O)NCCOCCOCCNC(=O)N[C@H]3C[C@H](NC(=O)NCCOCCOCCNC(=O)CCN4CCC(NC(=O)c5cc(Cl)c(N)c6c5OCC6)CC4)C3)CC2)c2c1CCO2 | 
32 | 2.08 | 108 | Nc1c(Cl)cc(C(=O)NC2CCN(CCC(=O)NCCOCCOCCNC(=O)N[C@H]3CC[C@@H](NC(=O)NCCOCCOCCNC(=O)CCN4CCC(NC(=O)c5cc(Cl)c(N)c6c5OCC6)CC4)CC3)CC2)c2c1CCO2 | 
33 | 3.1 | 85.6 | Nc1c(Cl)cc(C(=O)NC2CCN(CCNCCOCCOCCNC(=O)N[C@H]3CCCC[C@@H]3NC(=O)NCCOCCOCCNC(=O)CCN3CCC(NC(=O)c4cc(Cl)c(N)c5c4OCC5)CC3)CC2)c2c1CCO2 | 
34 | 0.85 | 123 | Nc1c(Cl)cc(C(=O)NC2CCN(CCC(=O)NCCOCCNC(=O)NCCOCCNC(=O)CCN3CCC(NC(=O)c4cc(Cl)c(N)c5c4OCC5)CC3)CC2)c2c1CCO2 | 
35 | 0.4 | 107 | Nc1c(Cl)cc(C(=O)NCC2CCN(CCC(=O)NCCOCCOCCNC(=O)NCCCCNC(=O)NCCOCCOCCNC(=O)CCN3CCC(CNC(=O)c4cc(Cl)c(N)c5c4OCC5)CC3)CC2)c2c1CCO2 | Ki [3]: 54.8 nM
36 | 0.95 | 103 | Nc1c(Cl)cc(C(=O)NC2CCN(CCC(=O)NCCOCCOCCNC(=O)NCCOCCOCCNC(=O)CCN3CCC(NC(=O)c4cc(Cl)c(N)c5c4OCC5)CC3)CC2)c2c1CCO2 | 
37 | 4.71 | 116 | Nc1c(Cl)cc(C(=O)NC2CCN(CCC(=O)NCCOCCOCCNC(=O)CCC(=O)NCCOCCOCCNC(=O)CCN3CCC(NC(=O)c4cc(Cl)c(N)c5c4OCC5)CC3)CC2)c2c1CCO2 | 
38 | 3.28 | 123 | Nc1c(Cl)cc(C(=O)NC2CCN(CCC(=O)NCCOCCOCCNC(=O)C(O)C(O)C(=O)NCCOCCOCCNC(=O)CCN3CCC(NC(=O)c4cc(Cl)c(N)c5c4OCC5)CC3)CC2)c2c1CCO2 (configuration not stated) | 
39 | 2.33 | 92.4 | Nc1c(Cl)cc(C(=O)NC2CCN(CCCC(=O)NCCOCCOCCNC(=O)NCCCCNC(=O)NCCOCCOCCNC(=O)CCCN3CCC(NC(=O)c4cc(Cl)c(N)c5c4OCC5)CC3)CC2)c2c1CCO2 | 
40 | 4.91 | 104 | Nc1c(Cl)cc(C(=O)NC2CCN(CCC(=O)NCCOCCOCCNC(=O)COCC(=O)NCCOCCOCCNC(=O)CCN3CCC(NC(=O)c4cc(Cl)c(N)c5c4OCC5)CC3)CC2)c2c1CCO2 | 
